Columns and labels:
[1] = system: pp59Lyn and IRS-1 in isolated rat adipocytes; experiment: tyrosine phosphorylation of pp59Lyn and IRS-1; assay type: cell-based
Method: Polypeptides separated by SDS-PAGE were transferred to polyvinylidene difluoride membranes using the semidry procedure as described in “Müller, G. et al., (2001) Mol. Cell. Biol. 21: 4553-4567”. Washed membranes were incubated with anti-caveolin-1 (1:2000), anti-pp59^Lyn (1:1250), anti-aP (1:500), anti-5′-Nuc (1:750) and anti-IRS-1 (1:2000) antibodies for 4 h at 15° C. Washed membranes were incubated with horseradish peroxidase-coupled secondary goat anti-mouse (1:2000) or goat anti-rabbit IgG (1:4000) antibodies. Labeled proteins were visualized by enhanced chemiluminescence.
FIG. 7: Effect of GPI-2350 on the glimepiride/insulin-induced activation of signaling proteins. Isolated rat adipocytes were treated (5 min, 37° C.) without or with GPI-2350 (Panels A, 50 μM; Panels B, increasing conc.) and then incubated (120 min, 37° C.) in the absence or presence of insulin (10 nM) or glimepiride (20 μM). IRS-1 and pp59^Lyn were immunoprecipitated from the defatted postnuclear infranatant (see Materials and Methods) and solubilized combined hc/lcDIGs, respectively, and then immunoblotted for phosphotyrosine. […]

[2] = system: GPI-PLC, hcDIGs of rat adipocytes; assay type: biochemical; details: isolated hcDIGs; concentration-dependent
[3] = system: GPI-PLC, rat adipocyte plasma membrane/DIGs; experiment: Inhibition of adipocyte GPI-PLC (plasma membranes, lcDIGs or hcDIGs), substrate AChE; assay type: biochemical
[4] = molecular target: T1, porcine pancreatic lipase (PL) (Sus scrofa, UniProt P00591); experiment: pancreatic lipase assay (tributyrin, pH stat); assay type: biochemical; details: 50 μM
T1 construct: crude porcine pancreatic lipase (PL); purchased SigmalAldrich (Deisenhofen, Germany); host or cells: porcine pancreas (crude preparation)
T1 sequence (P00591 whole entry): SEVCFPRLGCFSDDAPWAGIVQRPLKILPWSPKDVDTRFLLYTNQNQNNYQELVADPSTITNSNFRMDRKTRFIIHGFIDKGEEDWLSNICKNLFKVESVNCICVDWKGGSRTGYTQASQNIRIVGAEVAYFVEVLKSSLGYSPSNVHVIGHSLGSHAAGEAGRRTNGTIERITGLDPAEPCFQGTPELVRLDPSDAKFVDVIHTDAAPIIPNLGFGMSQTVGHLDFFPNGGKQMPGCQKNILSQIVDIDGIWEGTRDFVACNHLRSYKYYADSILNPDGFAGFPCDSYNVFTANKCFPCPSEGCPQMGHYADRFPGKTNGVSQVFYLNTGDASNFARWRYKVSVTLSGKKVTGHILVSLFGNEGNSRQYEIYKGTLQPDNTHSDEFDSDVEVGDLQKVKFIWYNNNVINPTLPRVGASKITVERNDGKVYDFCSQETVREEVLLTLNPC
T1 sequence (P02703 23-112 partner): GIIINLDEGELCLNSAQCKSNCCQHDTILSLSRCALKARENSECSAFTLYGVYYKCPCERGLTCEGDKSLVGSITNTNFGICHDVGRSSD
Method: Hormone-sensitive lipase (HSL) and lipoprotein lipase (LPL) were measured using a radiolabeled triolein droplet emulsion as described in “Vertesy et al., (2002) Journal Antibiotics 55:480-494”. Pancreatic lipase (PL) was determined by incubation of 0.25 mmol tributyrin in 2 ml of 5 mM Tris/HCl (pH 6.5), 6 mM sodium taurodeoxycholate, 150 mM NaCl, 1 mM CaCl2 with porcine PL and colipase in the same buffer using a recording pH stat (stirring at 1000 rpm at 25° C.) with the pH adjusted to 6.5. PC-PLC was assayed by incubation of 0.2 ml of 10 mM dipalmitoyllecithin, 0.1 ml of 10 mM SDC and 0.1 ml of 0.03 M CaCl2 with bacterial PC-PLC (in 50 mM Tris/HCl, pH 7.5, 0.1% BSA) for 10 min at 37° C. The reaction was terminated by addition of 0.1 ml of 50% TCA and subsequently of 2.5 ml of […]. After centrifugation (1500×g, 15 min), 0.2-ml portions of the upper methanol/water phase (˜1.33 ml) were removed, supplemented with 0.5 ml of 60% HClO4, then heated at 170° C. for 1 h and finally analyzed for inorganic phosphate. Mammalian PI-PLC was measured by incubation of 0.1 ml of 10 mM PI, 0.1 ml of 0.8% sodium deoxycholate, 0.1% BSA, 0.2 ml of 100 mM sodium borate (pH 7.5) and rat liver PI-PLC for 20 min at 37° C. The reaction was terminated and further processed as described for the PC-PLC. […] Radioactive phosphatidic acid was detected by phosphorimaging. […]

CCCCCCCCCCCCP1(=O)O[C@@H]2[C@H](O)[C@@H](O)[C@H](O)[C@@H](O)[C@@H]2O1 (some centres unmarked) [GPI-2350, myo-inositol-1,2-cyclo-dodecylphosphonic acid]
effect on insulin-induced tyrosine phosphorylation of IRS-1 [1]: only marginally reduced
effect on tyrosine phosphorylation of pp59Lyn and IRS-1 in response to glimepiride ([1]; 50 μM): almost complete blockade
reduction of basal and glimepiride-/insulin-stimulated GPI-PLC activity [2]: to lower than basal and similar levels
inhibition in words [3]: potent inhibitor
effect on PL [4]: not significantly affected
